In brackets after ≈: the same amount, converted by molar mass.
Test system: aorta pieces of rat (angiogenesis, capillaries formed around the aorta)
Test: Antiangiogenic effect: inhibition of capillary formation around rat aorta pieces incubated in collagen
Format: cell-based, rat (Sprague-Dawley)
Conditions: rat thoracic aorta pieces in Type I collagen gel, MCDB 131 medium; capillaries counted on 7th day from addition of test compound; three-fold dilutions from 10 μg/ml; read-out: IC50 (50% inhibiting concentration of angiogenesis)
Experimental: Pharmacological Experimental Example 1, Antiangiogenic Effect
The inhibition degree of angiogenesis which was observed when aorta pieces of rat were incubated in collagen was defined as an antiangiogenic effect. That is, the thoracic aorta excised from male rat of Sprague-Dawley strain (10-12 weeks age) was washed with a Hanks' solution (Gibco BRL, Gaithersburg, USA) so that fat tissues around there were removed minutely. The aorta was incised to prepare pieces of 2 mm square and they were allowed to stand in a 24-well plate holding the endothelial cells upside. Then, 500 μl of neutralized Type I collagen (Cell Matrix Type I-A; manufactured by Nitta Gelatin) were poured over each well and allowed to stand at room temperature for about 20 minutes in a clean bench to solidify the gel. After confirming that the gel was solidified, 500 μl of MCDB 131 medium (manufactured by Chlorella Kogyo) were added thereto followed by incubating in a CO2 incubator (5% CO2) at 37° C. On the next day, the culture medium was exchanged with 500 μl of MCDB 131 medium containing the test compound and the incubation was continued. After three days, the medium was again exchanged with 500 μl of MCDB 131 medium containing the test compound and, at the stage of the 7th day from the initiation of addition of the test compound, numbers of capillaries formed around the aorta were counted under a microscope. The solution containing the test compound was prepared in a three-fold dilution system where 10 μg/ml was the highest concentration.
Inhibiting rate was calculated from the following formula and 50% inhibiting concentration (IC50) for each test compound was determined.
Inhibiting Rate (%)=(C−T)/Cx100
C: Numbers of capillaries when no compound was added
T: Numbers of capillaries when a compound was added Table 1

SMILES | IC50 [µg/mL]
C=Cc1cccc2nc(NS(=O)(=O)c3cccnc3)ccc12 [Example 91, N-(5-Vinylquinolin-2-yl)-3-pyridinesulfonamide] | 0.33 (≈ 1.06 µM)
CCNS(=O)(=O)c1ccc(S(=O)(=O)Nc2ccc3c(Br)cccc3n2)cc1 [Example 27, N-(5-Bromoquinolin-2-yl)-4-(N-ethylsulfamoyl)benzenesulfonamide] | 0.08 (≈ 0.17 µM)
O=S(=O)(Nc1cnc2c(Br)cccc2c1)c1ccc2c(c1)SCCO2 [Example 47, N-(8-Bromoquinolin-3-yl) -4-oxa-7-thiochromansulfonamide] | 0.09 (≈ 0.206 µM)
CC(=O)NCCc1ccc(S(=O)(=O)Nc2cnc3c(Br)cccc3c2)cc1 [Example 48, N-(8-Bromoquinolin-3-yl)-4-(2-acetamideethyl)benzenesulfonamide] | 0.35 (≈ 0.781 µM)
N#Cc1ccc(S(=O)(=O)Nc2ccc3c(Cl)cccc3n2)cc1 [Example 24, 4-Cyano-N-(5-chloroquinolin-2-yl)-benzenesulfonamide] | 0.49 (≈ 1.43 µM)
COc1nccc2cc(NS(=O)(=O)c3ccc(-c4nccs4)cc3)ccc12 [Example 77, 1-Methoxy-6-(4-thiazol-2-ylbenzenesulfonylamino)isoquinoline] | 0.39 (≈ 0.981 µM)
O=c1cc(C(F)(F)F)c2ccc(NS(=O)(=O)c3ccc(Cl)cc3)cc2o1 [Example 92, N-(4-Trifluoromethylcoumarin-7-yl)-4-chlorobenzenesulfonamide] | 0.2 (≈ 0.495 µM)
N#Cc1ccc(S(=O)(=O)Nc2cnc3c(C(F)(F)F)cccc3c2)cc1 [Example 38, N-(8-Trifluoromethylquinolin-3-yl)-4-cyanobenzenesulfonmide] | 0.15 (≈ 0.398 µM)
O=S(=O)(Nc1cnc2c(Br)cccc2c1)c1cccnc1 [Example 1, N-(8-Bromoquinolin-3-yl)-3-pyridinesulfonamide] | 0.49 (≈ 1.35 µM)
COc1ccc(S(=O)(=O)Nc2cnc3c(Br)cccc3c2)nn1 [Example 53] | 0.53 (≈ 1.34 µM)
O=S(=O)(Nc1cnc2c(I)cccc2c1)c1cncc2ccccc12 [Example 15, N-(8-Iodoquinolin-3-yl)-4-isoquinolinesulfonamide] | 0.87 (≈ 1.89 µM)
N#Cc1ccc(S(=O)(=O)Nc2cnc3c(Br)cccc3c2)cc1 [Example 4, N-(8-Bromoquinolin-3-yl)-4-cyanobenzenesulfonamide] | 0.09 (≈ 0.232 µM)
N#Cc1nccc2cc(NS(=O)(=O)c3ccc(Cl)cc3)ccc12 [Example 84, 6-(4-Chlorobenzenesulfonylamino)-1-cyanoisoquinoline] | 0.14 (≈ 0.407 µM)
N#Cc1ccc(S(=O)(=O)Nc2ccc3c(Cl)nccc3c2)cc1 [Example 61, 1-Chloro-6-(4-cyanobenzenesulfonylamino)isoquinoline] | 0.3 (≈ 0.873 µM)
CCc1nccc2cc(NS(=O)(=O)c3ccc(Cl)cc3)ccc12 [Example 80, 6-(4-Chlorobenzenesulfonylamino)-1-ethylisoquinoline] | 0.2 (≈ 0.577 µM)
CCNS(=O)(=O)c1ccc(S(=O)(=O)Nc2cnc3c(Br)cccc3c2)cc1 [Example 6, N-(8-Bromoquinolin-3-yl)-4-(N-ethylsulfamoyl)benzenesulfonamide] | 0.12 (≈ 0.255 µM)
O=S1(=O)CCCc2cc(S(=O)(=O)Nc3cnc4c(Br)cccc4c3)ccc21 [Example 50, N-(8-Bromoquinolin-3-yl) -1,1-dioxide-6-yl-sulfonamide] | 0.31 (≈ 0.663 µM)
O=S(=O)(Nc1cnc2c(Br)cccc2c1)c1ccc2c(c1)CCC2 [Example 11, N-(8-Bromoquinolin-3-yl)-5-indanesulfonamide] | 0.04 (≈ 0.0992 µM)
COc1nccc2cc(NS(=O)(=O)c3ccc(N)nc3)ccc12 [Example 69, 6-(2-Aminopyridin-5-ylsulfonylamino)-1-methoxyisoquinoline] | 0.15 (≈ 0.454 µM)
O=S(=O)(Nc1ccc2c(Br)cncc2c1)c1ccc(Cl)nc1 [Example 59, N-(4-Bromoisoquinolin-7-yl)-6-chloro-3-pyridinesulfonamide] | 0.2 (≈ 0.502 µM)
Cc1cncc(S(=O)(=O)Nc2ccc3c(Br)cccc3n2)c1 [Example 2, N-(5-Bromoquinolin-2-yl)-5-methyl-3-pyridinesulfonamide] | 0.74 (≈ 1.96 µM)
CCc1cncc2ccc(NS(=O)(=O)c3ccc(Cl)cc3)cc12 [Example 81] | 0.85 (≈ 2.45 µM)
